Reference: patent US20130315843A1, “COMPOSITION FOR REDUCTION OF TRPA1 AND TRPV1 SENSATIONS” (priority 2012, published 2013)
Where two headings read alike, the source gives them in different places.

What was measured:
[1] = Headspace GC reduction of 1-propanethiol by protectant (Michael Acceptor) compounds; conditions: for % Thiol Reduction: 0.1% sodium lauryl sulfate, 1% test compound, headspace; for Percent Thiol Reduction vs. Control: 0.1% SLS
Procedure: For EXAMPLES 11 and 12 a 0.1% sodium lauryl sulfate (SLS) aqueous solution was prepared to contain either 1 ppm or 10 ppm of 1-propanethiol. SLS solution was added to the sample and control solutions to assist in solubilization of the more hydrophobic compounds. Control solutions contained surfactant and 1-propanethiol, while sample solutions contained these components plus a protectant compound added at either 0.01% or 0.05%. 100 μL aliquots of control or test solutions were aliquotted into a 22 mL headspace vial, vortexed for 30 seconds, and incubated for 30 minutes at 60 C in an oven. After that period, 1 mL of head space was sampled and injected into an Agilent 7890 gas chromatograph equipped with a sulfur chemiluminescence detector (GC-SCD). Peak areas of the 1-propanethiol control sample (no protectant compound added) were established by triplicate injection of the control sample. The area of the propanethiol peak produced from samples containing selected protectant molecules were then determined and ratioed to the 1-propanethiol control peak area, subtracted from 1, and multiplied by 100 to calculate percent reduction of the thiol peak, thus indicating the effectiveness of each protectant at reducing the level of thiol.
The samples in TABLE 17 were prepared by combining 1 ppm 1-propanethiol with 0.1% sodium lauryl sulfate with 1% of the test compounds. The volatile sulfurs were measured with headspace GC/MS using a SPEME column to capture the volatile sulfur.
The samples in TABLE 18 were prepared by combining either 1 or 10 ppm 1-propanethiol with 0.1% sodium lauryl sulfate with either 0.01% or 0.05% of the test compounds.

[2] = Trained sensory panel, burn sensation after brushing with menthol dentifrice; type: in vivo, human; set-up: key: 0 = no burning to 60 = highest intensity; 7.5 difference = significant; conditions: scale 0-60
Procedure: (§1) For EXAMPLES 6 and 7 sensory evaluation studies of menthol and hydrogen peroxide activity were conducted using a methodology patterned after the techniques described in M. C. Meilgaard, et al., Sensory Evaluation Techniques, 4th Ed. (2007). In one study, a panel of 8-15 trained sensory experts evaluated the menthol or peroxide sensations experienced after brushing with a dentifrice containing the menthol or hydrogen peroxide and the respective TRPA1 or TRPV1 antagonists. Panelists brushed teeth with 1.5 grams of a dentifrice (containing coolant) or control (no coolant) and then expectorated. After brush expectoration, panelists evaluated the burn intensity, assigning a number between 0 (no burning) to 60 ([…]). After rinse expectoration, panelists evaluated burning intensity according to the same 0 to 60 scale. Evaluations were conducted at 5, 15, 30, 45, 60 minute, etc. time points. At each evaluation, panelists were instructed to breathe in through pursed lips and evaluate overall burning sensation. In this test, a numerical score difference from the control of 7.5 indicates user significant differences or definite reduction in burning at the specified time point. Measures between 4.0 to 7.5 indicate a noticeable trend in the specified parameter, which is not statistically significant, but noticeable.
For EXAMPLE 6 (TABLES 8 and 9), a panel of 14 trained sensory experts evaluated the sensory profile experienced after brushing with the dentifrice sample formulations shown in TABLES 6 and 7 containing high levels of menthol followed by rinsing with water. Panelists brushed teeth with 1.5 grams of a test dentifrice (containing high menthol levels) or control (no menthol) for 36 seconds and then expectorated. The dentifrice sample formulations (control and high L-Menthol) are shown below in TABLE 6 (with peppermint flavor) and TABLE 7 (with spearmint flavor). The dentifrices were made using conventional methods and are shown below with component amounts in weight % of total composition. […]
For TABLE 10 all the Samples had the same formulation as Sample E from TABLE 6, except for the Control which lacked menthol. After brushing or mouthwash expectoration, panelists evaluated the burning sensation, assigning a number between 0 (no sensation) to 60 (highest intensity sensation). Evaluations were conducted at 5, 10, 20 and 30 minute time points, following expectoration. At each evaluation, panelists were instructed to breathe in through pursed lips and evaluate overall sensation. In this test, a numerical score of 7.5 indicates a significant user noticeable sensation. Differences less than 7.5, but greater than 5.0 indicate the trending of the data on a specific attribute.

[3] = Trained sensory panel, burning and numbing sensation after hydrogen peroxide mouthwash; type: in vivo, human; set-up: key to Burning Sensation: 0 = no sensation, 60 = highest intensity sensation; conditions: scale 0-60
Procedure: as §1
For EXAMPLE 7, a panel of 10 trained sensory experts evaluated the sensory profile experienced after rinsing with 30 grams of a test mouthwash (containing hydrogen peroxide and TRPA1 or TRPV1 antagonist) or control (containing hydrogen peroxide and no TRPA1 or TRPV1 antagonist) for 30 seconds and then expectorated. After expectoration, panelists evaluated the sensorial profile (cooling, warming, burning, numbing, and astringency), assigning a number between 0 (no sensation) to 60 (highest intensity sensation). Evaluations were conducted at 2.5, 5, 10, 20, and 30 minute time points, following expectoration at each evaluation, panelists were instructed to breathe in through pursed lips and evaluate overall burning or numbing sensation. The hydrogen peroxide containing mouthwash formulations are shown below in TABLE 11. The mouthwash samples tested comprised a control having the components listed in TABLE 11 by weight % of the composition or the control formulation plus TRPA1 or TRPV1 antagonist, as shown in TABLE 12. The mouthwashes were made using conventional methods and are shown below with amounts in weight % of total composition.

human TRPV1 [4] = target: T1, human TRPV1 (Homo sapiens, UniProt Q8NER1); assay: FLIPR Ca2+ assay, reduction of capsaicin activation of TRPV1; type: cell-based; set-up: expressed in transfected cells; conditions: for % inhibition of TRPV1 activation by 350 nM Capsaicin: Dose 1000; for Ca++ counts: with compound, Dose 1000, 350 nM Capsaicin
T1 sequence (Q8NER1 whole entry): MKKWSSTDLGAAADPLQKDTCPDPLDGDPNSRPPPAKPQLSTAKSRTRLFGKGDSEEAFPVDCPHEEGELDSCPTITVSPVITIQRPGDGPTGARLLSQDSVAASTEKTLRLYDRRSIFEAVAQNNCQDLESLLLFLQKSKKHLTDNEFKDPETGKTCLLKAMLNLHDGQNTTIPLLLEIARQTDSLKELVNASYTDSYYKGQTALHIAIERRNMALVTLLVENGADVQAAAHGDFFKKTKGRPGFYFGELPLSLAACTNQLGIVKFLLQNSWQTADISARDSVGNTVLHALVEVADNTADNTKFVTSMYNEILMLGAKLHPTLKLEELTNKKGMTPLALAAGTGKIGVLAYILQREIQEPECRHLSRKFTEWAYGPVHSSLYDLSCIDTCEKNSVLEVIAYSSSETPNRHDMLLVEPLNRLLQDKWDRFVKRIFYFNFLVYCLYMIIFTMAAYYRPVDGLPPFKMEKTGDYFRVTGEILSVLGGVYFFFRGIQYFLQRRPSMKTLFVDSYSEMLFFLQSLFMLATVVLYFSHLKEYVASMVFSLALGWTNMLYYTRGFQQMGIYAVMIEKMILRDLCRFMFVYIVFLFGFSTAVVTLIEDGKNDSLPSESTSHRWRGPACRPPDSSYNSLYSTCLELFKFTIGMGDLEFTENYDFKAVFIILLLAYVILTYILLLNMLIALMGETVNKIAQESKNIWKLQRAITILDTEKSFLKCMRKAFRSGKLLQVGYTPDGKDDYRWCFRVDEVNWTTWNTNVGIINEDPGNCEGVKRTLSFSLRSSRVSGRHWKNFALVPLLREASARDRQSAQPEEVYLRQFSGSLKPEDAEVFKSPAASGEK
Procedure: (§2) Cells were detached with addition of 10 ml of PBS (phosphate buffered saline) by hand shaking gently. Cells were transferred to a 50 ml tube and centrifuged at 850 rpm for 3 minutes to remove PBS.
(§3) The pelleted cells were re-suspended in 10 ml assay buffer and 90 μl aliquots (˜50,000 cells) per well delivered to a 96-well assay plate containing 10 μl of test compounds ([…]) or buffer control and incubated at room temperature for 30 minutes.

human TRPV1 [5] = target: T1, human TRPV1; assay: FLIPR Ca2+ assay, reduction of hydrogen peroxide activation of TRPV1; type: cell-based; set-up: expressed in transfected cells; conditions: for % inhibition of TRPV1 activation by 500 uM H2O2: Dose 1000; for Ca++ counts: with compound, Dose 1000, 500 uM H2O2
Procedure: as §2
The pelleted cells were re-suspended in 10 ml assay buffer and 90 μl aliquots (˜50,000 cells) per well delivered to a 96-well assay plate containing 10 μl of test compounds (1 mM in assay buffer, […]) or buffer control and incubated at room temperature for 30 minutes.

human TRPA1 = human TRPA1 (Homo sapiens, UniProt O75762); assay: FLIPR Ca2+ assay, reduction of hydrogen peroxide activation of TRPA1; type: cell-based; set-up: expressed in transfected cells
human TRPA1, sequence (O75762 whole entry): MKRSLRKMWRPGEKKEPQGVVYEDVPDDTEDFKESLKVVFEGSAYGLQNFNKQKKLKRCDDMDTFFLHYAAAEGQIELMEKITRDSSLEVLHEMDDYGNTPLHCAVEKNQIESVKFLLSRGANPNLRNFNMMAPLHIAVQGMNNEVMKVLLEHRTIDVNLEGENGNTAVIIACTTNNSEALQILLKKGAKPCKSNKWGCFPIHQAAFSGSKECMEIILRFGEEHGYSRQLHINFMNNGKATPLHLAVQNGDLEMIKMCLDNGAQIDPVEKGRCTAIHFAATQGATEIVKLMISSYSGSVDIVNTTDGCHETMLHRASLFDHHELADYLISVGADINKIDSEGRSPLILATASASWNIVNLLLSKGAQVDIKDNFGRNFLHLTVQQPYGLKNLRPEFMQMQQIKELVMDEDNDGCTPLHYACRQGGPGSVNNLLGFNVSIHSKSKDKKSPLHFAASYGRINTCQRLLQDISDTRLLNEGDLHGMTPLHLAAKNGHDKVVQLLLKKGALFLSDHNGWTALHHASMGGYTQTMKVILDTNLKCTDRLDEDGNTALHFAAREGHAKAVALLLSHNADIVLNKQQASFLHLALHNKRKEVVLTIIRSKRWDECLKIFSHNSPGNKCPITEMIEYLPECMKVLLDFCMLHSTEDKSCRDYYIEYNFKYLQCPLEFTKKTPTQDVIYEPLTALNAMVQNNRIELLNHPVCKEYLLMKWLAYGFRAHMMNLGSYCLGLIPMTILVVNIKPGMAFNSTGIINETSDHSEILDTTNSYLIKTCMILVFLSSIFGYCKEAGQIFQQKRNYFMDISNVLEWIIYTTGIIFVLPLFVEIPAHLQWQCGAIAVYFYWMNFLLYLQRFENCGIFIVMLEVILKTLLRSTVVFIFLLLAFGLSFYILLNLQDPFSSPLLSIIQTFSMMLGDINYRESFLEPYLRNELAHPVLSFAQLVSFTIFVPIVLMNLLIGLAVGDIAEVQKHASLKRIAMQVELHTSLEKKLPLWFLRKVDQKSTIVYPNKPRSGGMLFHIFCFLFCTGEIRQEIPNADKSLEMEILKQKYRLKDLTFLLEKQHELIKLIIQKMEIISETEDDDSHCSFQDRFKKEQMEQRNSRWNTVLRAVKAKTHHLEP
Procedure: After centrifugation, a pellet of cells was formed in the bottom of the tube separating them from the supernatant solution.
as §3

[6] = 5 Min After Rinse, dentifrice Sample E (1% menthol) with antagonist levels as E42
[7] = 10 Min After Rinse, dentifrice Sample E (1% menthol) with antagonist levels as E42
[8] = 20 Min After Rinse, dentifrice Sample E (1% menthol) with antagonist levels as E42
[9] = 30 Min After Rinse, dentifrice Sample E (1% menthol) with antagonist levels as E42
[10] = After Expectoration, dentifrice Sample E (1% added menthol) with Apritone 200 ppm, Dihydrojasmone 6 ppm, Isobornyl Isobutyrate 100 ppm, α-heptyl-γ-valerolactone 100 ppm as named
[11] = After Rinse, dentifrice Sample E (1% menthol) with antagonist levels as E42
[12] = 2 Min 30 SEC After Expectoration, H2O2 mouthwash, antagonist levels as E48
[13] = 5 Min After Expectoration, H2O2 mouthwash, antagonist levels as E48
[14] = 10 Min After Expectoration, H2O2 mouthwash, antagonist levels as E48
[15] = 20 Min After Expectoration, H2O2 mouthwash, antagonist levels as E48
[16] = 30 Min After Expectoration, H2O2 mouthwash, antagonist levels as E48
[17] = After Expectoration, H2O2 mouthwash, antagonist levels as E48
[18] = Initial in Mouth, hydrogen peroxide mouthwash (TABLE 11) with Apritone 200 ppm, Isobornyl Isobutyrate 100 ppm, Dihydrojasmone 6 ppm as named, 10 panelists
[19] = antagonist 100 μM against 500 μM hydrogen peroxide
[20] = 1 ppm 1-propanethiol, 0.01% test compound
[21] = 1 ppm 1-propanethiol, 0.05% test compound
[22] = 10 ppm 1-propanethiol, 0.01% test compound
[23] = 10 ppm 1-propanethiol, 0.05% test compound

CC(=O)c1ccc[nH]1 [Acetylpyrrole]
% Thiol Reduction ([1]; 1 ppm 1-propanethiol): 37.3%

CC(C)=CCC/C(C)=C/CC1CCCC1=O (stereo not drawn) [Apritone]
Burning Sensation Rating [2, 6]: 13.3 | Burning Sensation Rating [2, 7]: 5.3 | Burning Sensation Rating [2, 8]: 0.0 | Burning Sensation Rating [2, 9]: 0.0 | Burning Sensation Rating [2, 10]: 27.4 | Burning Sensation Rating [2, 11]: 24.0 | Burning Sensation [3, 12]: 20.8 | Numbing Sensation [3, 12]: 12.4 | Burning Sensation [3, 13]: 16.0 | Numbing Sensation [3, 13]: 10.1 | Burning Sensation [3, 14]: 8.6 | Numbing Sensation [3, 14]: 6.0 | Burning Sensation [3, 15]: 3.3 | Numbing Sensation [3, 15]: 4.2 | Burning Sensation [3, 16]: 1.3 | Numbing Sensation [3, 16]: 0.8 | Burning Sensation [3, 17]: 21.9 | Numbing Sensation [3, 17]: 11.6 | Burning Sensation [3, 18]: 12.6 | % inhibition of TRPV1 activation by 350 nM Capsaicin (human TRPV1 [4]): 10% | Ca++ counts (human TRPV1 [4]): 13526 | % inhibition of TRPV1 activation by 500 uM H2O2 (human TRPV1 [5]): 96% | % Reduction of Hydrogen Peroxide TRPV1 Activation (human TRPV1 [5]; [19]): 96% | Ca++ counts (human TRPV1 [5]): 66

O=C/C=C/c1ccccc1 [Cinnamic aldehyde]
Percent Thiol Reduction vs. Control [1, 20]: 36.8% | Percent Thiol Reduction vs. Control [1, 21]: 52.4% | Percent Thiol Reduction vs. Control [1, 22]: −10.0% | Percent Thiol Reduction vs. Control [1, 23]: −5.7%

CCc1occc(=O)c1O [Ethyl maltol]
% Thiol Reduction ([1]; 1 ppm 1-propanethiol): −17.2%

CC(C)C(=O)O[C@@H]1C[C@H]2CC[C@]1(C)C2(C)C [Isobornyl Isobutyrate]
Burning Sensation Rating [2, 6]: 12.8 | Burning Sensation Rating [2, 7]: 5.6 | Burning Sensation Rating [2, 8]: 0.6 | Burning Sensation Rating [2, 9]: 0.0 | Burning Sensation Rating [2, 10]: 25.4 | Burning Sensation Rating [2, 11]: 22.8 | % Reduction of Hydrogen Peroxide TRPA1 Activation (human TRPA1): 80% | Block of hydrogen peroxide activation of TRPA1 (human TRPA1): BLOCK ONLY H2O2/TRPA1 | reduction of hydrogen peroxide activation of TRPA1, in words (human TRPA1): reduced hydrogen peroxide activation of TRPA1 | Burning Sensation [3, 12]: 17.6 | Numbing Sensation [3, 12]: 7.9 | Burning Sensation [3, 13]: 11.4 | Numbing Sensation [3, 13]: 5.8 | Burning Sensation [3, 14]: 5.1 | Numbing Sensation [3, 14]: 2.5 | Burning Sensation [3, 15]: 0.0 | Numbing Sensation [3, 15]: 0.0 | Burning Sensation [3, 16]: 0.0 | Numbing Sensation [3, 16]: 0.0 | Burning Sensation [3, 17]: 20.9 | Numbing Sensation [3, 17]: 8.4 | Burning Sensation [3, 18]: 12.7 | % inhibition of TRPV1 activation by 350 nM Capsaicin (human TRPV1 [4]): 1.5% | Ca++ counts (human TRPV1 [4]): 14803 | reduction of hydrogen peroxide activation of TRPV1, in words (human TRPV1 [5]): hydrogen peroxide reduction of TRPV1 | % inhibition of TRPV1 activation by 500 uM H2O2 (human TRPV1 [5]): 52% | % Reduction of Hydrogen Peroxide TRPV1 Activation (human TRPV1 [5]; [19]): 52% | Ca++ counts (human TRPV1 [5]): 541

CC1=CC(=O)CC(C)(C)C1 [Isophorone]
% Thiol Reduction ([1]; 1 ppm 1-propanethiol): 43.1%

CC(=O)OC1=C(C)OC(C)C1=O (stereo not drawn) [Strawberry Furanone Acetate, 4-Acetoxy-2,5-dimethyl-3(2H)-furanone]
reduction of hydrogen peroxide activation of TRPA1, in words (human TRPA1): reduced hydrogen peroxide activation of TRPA1 | Block of hydrogen peroxide activation of TRPA1 (human TRPA1; 400 μM antagonist vs 500 μM hydrogen peroxide): BLOCK ONLY H2O2/TRPA1 | inhibition at 400 µM (human TRPA1; antagonist 400 μM against 200 μM hydrogen peroxide, read-out: % Reduction of Hydrogen Peroxide TRPA1 Activation): 63% | Ca++ counts (human TRPV1 [4]): 14578 | reduction of hydrogen peroxide activation of TRPV1, in words (human TRPV1 [5]): hydrogen peroxide reduction of TRPV1 | inhibition at 100 µM (human TRPV1 [5]; [19]): 60% | Ca++ counts (human TRPV1 [5]): 451

CC/C=C\CC1=C(C)CCC1=O [cis-Jasmone]
Percent Thiol Reduction vs. Control [1, 20]: 36.1% | Percent Thiol Reduction vs. Control [1, 21]: 55.3% | Percent Thiol Reduction vs. Control [1, 22]: 25.4% | Percent Thiol Reduction vs. Control [1, 23]: 8.2%

C/C=C/C(=O)C1C(C)C=CCC1(C)C (stereo not drawn) [delta damascone]
thiol reduction, comparison in words ([1]; 10 ppm 1-propanethiol, compound 0.01%): higher activity at its lower concentration (0.01%) than any of the other michael acceptor's

C/C=C/C(=O)C1C(C)C=CCC1(C)C (stereo not drawn) [delta-Damascone]
Percent Thiol Reduction vs. Control [1, 20]: 77.7% | Percent Thiol Reduction vs. Control [1, 21]: 82.3% | Percent Thiol Reduction vs. Control [1, 22]: 81.0% | Percent Thiol Reduction vs. Control [1, 23]: 81.2%

CCCCCCCC1CC(C)OC1=O (stereo not drawn) [α-heptyl-γ-valerolactone]
Burning Sensation Rating [2, 6]: 13.8 | Burning Sensation Rating [2, 7]: 1.3 | Burning Sensation Rating [2, 8]: 0.0 | Burning Sensation Rating [2, 9]: 0.0 | Burning Sensation Rating [2, 10]: 25.4 | Burning Sensation Rating [2, 11]: 21.5
